US8916679B2, “Peptides binding to the dimer interface of thymidylate synthase for the treatment of cancer” (Universita′ degli Studi di Modena e Reggio Emilia, priority 2009, dated 2014)
Where no end group is shown, it is not given here.

Key:
[1] = target: T1, hTS enzyme (human Thymidylate synthase) (Homo sapiens, UniProt P04818); experiment: Peptidic inhibitor Ki value determination vs dUMP and vs mTHF; assay type: biochemical; details: Lineweaver-Burk analysis, FIG. 4
T1 construct: made in house; host or cells: E. coli (printed as 'BL21 strain DH5α'), vector pQE80L

[2] = tested on: A2780 cells; experiment: Cell growth assay (crystal violet dye); assay type: cell-based, human; details: 10 μM, FIG. 7
Procedure: Cultures were equilibrated with humidified 5% CO2 in air at 37° C.
Cells were seeded into 24-well plates and allowed to attach overnight. Peptides were delivered into cells by means of a peptide delivery system, following the procedures indicated by the manufacturer. On selected days, after removal of the tissue culture medium, cell growth was determined by a modification of the crystal violet dye assay. The extracted dye was proportional to cell number.

T1 sequence (P04818 with tags, fused parts or gaps): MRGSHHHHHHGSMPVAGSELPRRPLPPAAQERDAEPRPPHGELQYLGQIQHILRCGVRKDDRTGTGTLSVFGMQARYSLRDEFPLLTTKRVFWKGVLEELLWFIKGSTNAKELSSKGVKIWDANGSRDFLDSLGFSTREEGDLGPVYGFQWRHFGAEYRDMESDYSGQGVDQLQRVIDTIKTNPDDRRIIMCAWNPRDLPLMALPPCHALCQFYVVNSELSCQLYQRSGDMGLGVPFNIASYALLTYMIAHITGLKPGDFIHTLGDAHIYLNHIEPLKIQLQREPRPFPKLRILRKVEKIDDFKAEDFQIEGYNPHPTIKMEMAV

Row | Sequence | type of inhibition (kinetic data) [1] | relative activity against A2780 cells [2]
1 | DFIHTLGD [SEQ ID NO: 1] | competitive inhibition pattern | –
2 | YVVNSELS [SEQ ID NO: 44] | – | particularly active
